{
  "source": "patent US9895335B2",
  "about": "“Ophthalmic compositions containing a nitric oxide donor” (NICOX SCIENCE IRELAND, priority 2013, dated 2018)",
  "test_system": "hypertonic saline-induced IOP increase in rabbits",
  "experiment": "Intraocular pressure (IOP) lowering activity in hypertonic saline-induced IOP increase in rabbits",
  "format": "in vivo, New Zealand White rabbits",
  "parameters": "unit not given here",
  "conditions": "topical, versus vehicle and versus basal IOP before hypertonic saline injection",
  "method": "Intraocular Pressure (IOP) Lowering Activity in Hypertonic Saline-Induced IOP Increase in Rabbits\nThe Intraocular pressure (TOP) lowering activity of compound (Ia) (Example 1) was assessed in an animal model of elevated IOP.\nAdults male New Zealand White rabbits weighting 1.8-2.0 Kg were used in the experiments.\nIOP was measured using a Tono-Pen XL prior to hypertonic saline injection (basal) and at 30, 60, 120 and 240 min thereafter. Vehicle (5% cremophor-EL; 0.3% DMSO; 0.2 mg/ml bac in PBS pH 6.0,) or compound (Ia) dissolved in the vehicle at different concentrations (0.1%, 0.3% and 1%) was instilled as eye drops immediately after hypertonic saline injection. Eyes were randomly assigned to different treatment groups. Vehicle or compound (Ia) was directly instilled into the conjunctiva pocket at the desired doses. One drop of 0.4% oxybuprocaine hydrochloride (Novesine, Sandoz) was instilled in each eye immediately before each set of pressure measurements.\nResults are reported in Table in which the ocular hypotensive activity of compound (Ia) at different is expressed as IOP change (at 60 and 120 minutes following topical administration) versus vehicle and versus IOP at basal before hypertonic saline injection.",
  "data": [
    {"smiles": "CCCC(=O)OCCCCO[N+](=O)[O-]", "note": "[Compound (Ia), 4-Nitrooxybutan-1-Ol Butyrate]", "values": [
      {"measurement": "IOP change", "setting": "0.1% eye drops, 60 min after administration", "value": "−10.3 ± 0.3"},
      {"measurement": "IOP change", "setting": "0.1% eye drops, 120 min after administration", "value": "−5 ± 1.8"},
      {"measurement": "IOP change", "setting": "0.3% eye drops, 60 min after administration", "value": "−16.5 ± 3.8"},
      {"measurement": "IOP change", "setting": "0.3% eye drops, 120 min after administration", "value": "−9 ± 2.1"},
      {"measurement": "IOP change", "setting": "1% eye drops, 60 min after administration", "value": "−21.1 ± 4.5"},
      {"measurement": "IOP change", "setting": "1% eye drops, 120 min after administration", "value": "−15.1 ± 2.3"}
    ]}
  ]
}
